Laboratory results reported in patent US8354422B2, “Pyrimidine inhibitors of kinase activity” (Abbott Laboratories Inc., priority 2009, dated 2013).

Biological target: T1, C-terminal GST-tagged, recombinant, human IGF-1R, amino acids 954-1367 (Homo sapiens, UniProt P08069)
T1 construct: human IGF-1R, amino acids 954-1367 expressed by baculovirus in Sf21 cells; GST (C); purchased Cell Signaling Technology; host or cells: baculovirus in Sf21 cells
Experiment: IGF-1R kinase activity, homogenous time-resolved fluorescence (HTRF) in vitro kinase assay
Assay type: biochemical
Conditions: IGF-1R kinase HTRF assay, ATP 50 μM, biotinylated peptide substrate 0.5 μM, 60 minutes at room temperature
Procedure: IGF-1R kinase activity was assayed by a homogenous time-resolved fluorescence (HTRF) in vitro kinase assay (Mathis, G., HTRF(R) Technology. J Biomol Screen, 1999. 4(6): p. 309-314). Specifically, 10 μL C-terminal GST-tagged, recombinant, human IGF-1R, amino acids 954-1367 expressed by baculovirus in Sf21 cells (Cell Singaling Technology) was mixed with 10 μL inhibitor (various concentrations, 2% final DMSO) and 10 μL of ATP (50 μM final concentration) in reaction buffer (50 mM HEPES, pH […], 2 mM MnCl2, 0.1% BSA and 1 mM DTT, 40 μL final volume). The reaction was initiated by addition of 10 μL of biotinylated peptide substrate (Biotin-Ahx-[…], 0.5 μM final concentration) in a black 384-well plate (Packard). After 60 minutes incubation at room temperature, the reaction was quenched by addition of 60 μL stop/revelation buffer to give 30 mM EDTA, 1 μg/mL streptavidin-APC (Prozyme), 50 ng/mL anti-phosphotyrosine mAb PT66-K Europium Cryptate, 30 mM HEPES, pH 7.5, 120 mM KF, 0.005% Tween-20, 0.05% BSA). The quenched reaction was allowed to stand at room temperature for 1 hour and then read in a time-resolved fluorescence detector (Envision, Perkin Elmer) at 615 nm and 665 nm simultaneously. The ratio between the signal of 615 nm and 665 nm was used in the calculation of the IC50.

T1 sequence (P08069 954-1367): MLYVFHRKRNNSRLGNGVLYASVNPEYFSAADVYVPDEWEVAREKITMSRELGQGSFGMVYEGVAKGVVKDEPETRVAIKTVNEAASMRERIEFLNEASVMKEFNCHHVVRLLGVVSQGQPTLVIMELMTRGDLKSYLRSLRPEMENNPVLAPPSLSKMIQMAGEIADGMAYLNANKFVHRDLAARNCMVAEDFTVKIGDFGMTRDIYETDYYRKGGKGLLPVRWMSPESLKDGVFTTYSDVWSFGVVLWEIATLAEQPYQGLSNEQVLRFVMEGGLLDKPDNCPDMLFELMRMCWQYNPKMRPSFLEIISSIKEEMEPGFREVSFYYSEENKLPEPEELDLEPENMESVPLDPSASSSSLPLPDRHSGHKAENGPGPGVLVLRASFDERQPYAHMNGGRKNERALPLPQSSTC

Structure (SMILES)	IC50
COc1cc(N)ccc1Nc1nccc(-c2c(-c3ccc(OCc4ccccc4)c(OC)c3)nc3ccccn23)n1 [Example 46, N^1-(4-{2-[4-(benzyloxy)-3-methoxyphenyl]imidazo[1,2-a]pyridin-3-yl}pyrimidin-2-yl)-2-methoxybenzene-1,4-diamine]	25 to 100 nM
COc1cc(Cl)ccc1Nc1nccc(-c2c(-c3ccc(OCc4ccccc4)cc3)nc3ccccn23)n1 [Example 22, 4-{2-[4-(benzyloxy)phenyl]imidazo[1,2-a]pyridin-3-yl}-N-(4-chloro-2-methoxyphenyl)pyrimidin-2-amine]	> 1000 nM
COc1cc(-c2nc3ccccn3c2-c2ccnc(Nc3ccc(N4CCN(CCO)CC4)cc3)n2)ccc1OCc1ccccc1 [Example 44, 2-(4-{4-[(4-{2-[4-(benzyloxy)-3-methoxyphenyl]imidazo[1,2-a]pyridin-3-yl}pyrimidin-2-yl)amino]phenyl}piperazin-1-yl)ethanol]	25 to 100 nM
c1ccc(COc2ccc(-c3nc4ccccn4c3-c3ccnc(Nc4ccccc4)n3)cc2)cc1 [Example 7, 4-{2-[4-(benzyloxy)phenyl]imidazo[1,2-a]pyridin-3-yl}-N-phenylpyrimidin-2-amine]	> 1000 nM
Cc1cc(Nc2nccc(-c3c(-c4ccc(OCc5ccccc5)cc4)nc4ccccn34)n2)n[nH]1 [Example 14, 4-{2-[4-(benzyloxy)phenyl]imidazo[1,2-a]pyridin-3-yl}-N-(5-methyl-1H-pyrazol-3-yl)pyrimidin-2-amine]	> 1000 nM
COc1ccccc1Nc1nccc(-c2c(-c3ccc(OCc4ccccc4)cc3)nc3ccccn23)n1 [Example 3, 4-{2-[4-(benzyloxy)phenyl]imidazo[1,2-a]pyridin-3-yl}-N-(2-methoxyphenyl)pyrimidin-2-amine]	> 1000 nM
COc1cc(N2CCSCC2)ccc1Nc1nccc(-c2c(-c3ccc(OCc4ccccc4)c(OC)c3)nc3ccccn23)n1 [Example 51, 4-{2-[4-(benzyloxy)-3-methoxyphenyl]imidazo[1,2-a]pyridin-3-yl}-N-(2-methoxy-4-thiomorpholin-4-ylphenyl)pyrimidin-2-amine]	501 to 1000 nM
COc1cc(N(C)CCO)ccc1Nc1nccc(-c2c(-c3ccc(OCc4ccccc4)c(OC)c3)nc3ccccn23)n1 [Example 48, 2-[{4-[(4-{2-[4-(benzyloxy)-3-methoxyphenyl]imidazo[1,2-a]pyridin-3-yl}pyrimidin-2-yl)amino]-3-methoxyphenyl}(methyl)amino]ethanol]	101 to 500 nM
COc1cc(-c2nc3ccccn3c2-c2ccnc(Nc3cccc(CCN(C)C)c3)n2)ccc1OCc1ccccc1 [Example 12, 4-{2-[4-(benzyloxy)-3-methoxyphenyl]imidazo[1,2-a]pyridin-3-yl}-N-{3-[2-(dimethylamino)ethyl]phenyl}pyrimidin-2-amine]	101 to 500 nM
COc1ccc(C(F)(F)F)cc1Nc1nccc(-c2c(-c3ccc(OCc4ccccc4)cc3)nc3ccccn23)n1 [Example 41, 4-{2-[4-(benzyloxy)phenyl]imidazo[1,2-a]pyridin-3-yl}-N-[2-methoxy-5-(trifluoromethyl)phenyl]pyrimidin-2-amine]	> 1000 nM
COc1cc(-c2nc3ccccn3c2-c2ccnc(Nc3ccc(N4CCC(N(C)C)CC4)cc3)n2)ccc1OCc1ccccc1 [Example 36, 4-{2-[4-(benzyloxy)-3-methoxyphenyl]imidazo[1,2-a]pyridin-3-yl}-N-{4-[4-(dimethylamino)piperidin-1-yl]phenyl}pyrimidin-2-amine]	< 25 nM
COc1cc(-c2nc3ccccn3c2-c2ccnc(Nc3cnn(CCO)c3)n2)ccc1OCc1ccccc1 [Example 47, 2-{4-[(4-{2-[4-(benzyloxy)-3-methoxyphenyl]imidazo[1,2-a]pyridin-3-yl}pyrimidin-2-yl)amino]-1H-pyrazol-1-yl}ethanol]	25 to 100 nM
CCc1cc(-c2nc3ccccn3c2-c2ccnc(Nc3cccc(CCN(C)C)c3)n2)ccc1OCc1ccccc1 [Example 50, 4-{2-[4-(benzyloxy)-3-ethylphenyl]imidazo[1,2-a]pyridin-3-yl}-N-{3-[2-(dimethylamino)ethyl]phenyl}pyrimidin-2-amine]	> 1000 nM

Results, then the compound that gave them:

IC50	Structure (SMILES)
> 1000 nM	c1ccc(COc2ccc(-c3nc4sccn4c3-c3ccnc(Nc4ccccc4)n3)cc2)cc1 [Example 78, 4-{6-[4-(benzyloxy)phenyl]imidazo[2,1-b][1,3]thiazol-5-yl}-N-phenylpyrimidin-2-amine]
25 to 100 nM	COc1cc(-c2nc3ccccn3c2-c2ccnc(Nc3cnn(CCN4CCOCC4)c3)n2)ccc1OCc1ccccc1 [Example 55, 4-{2-[4-(benzyloxy)-3-methoxyphenyl]imidazo[1,2-a]pyridin-3-yl}-N-[1-(2-morpholin-4-ylethyl)-1H-pyrazol-4-yl]pyrimidin-2-amine]
25 to 100 nM	COc1cc(-c2nc3ccccn3c2-c2ccnc(Nc3cccc(NC(=O)CN(C)C)c3)n2)ccc1OCc1ccccc1 [Example 66, N^1-{3-[(4-{2-[4-(benzyloxy)-3-methoxyphenyl]imidazo[1,2-a]pyridin-3-yl}pyrimidin-2-yl)amino]phenyl}-N^2,N^2-dimethylglycinamide]
25 to 100 nM	COc1cc(N(C)C)ccc1Nc1nccc(-c2c(-c3ccc(OCc4ccccc4)c(OC)c3)nc3sccn23)n1 [Example 81, N^1-(4-{6-[4-(benzyloxy)-3-methoxyphenyl]imidazo[2,1-b][1,3]thiazol-5-yl}pyrimidin-2-yl)-2-methoxy-N^4,N^4-dimethylbenzene-1,4-diamine]
< 25 nM	COc1ccc(NC(=O)CN(C)C)cc1Nc1nccc(-c2c(-c3ccc(OCc4ccccc4)c(OC)c3)nc3ccccn23)n1 [Example 71, N^1-{3-[(4-{2-[4-(benzyloxy)-3-methoxyphenyl]imidazo[1,2-a]pyridin-3-yl}pyrimidin-2-yl)amino]-4-methoxyphenyl}-N^2,N^2-dimethylglycinamide]
> 1000 nM	FC(F)(F)Oc1cc(-c2nc3ccccn3c2-c2ccnc(Nc3cccc(CCN4CCCC4)c3)n2)ccc1OCc1ccccc1 [Example 58, 4-{2-[4-(benzyloxy)-3-(trifluoromethoxy)phenyl]imidazo[1,2-a]pyridin-3-yl}-N-[3-(2-pyrrolidin-1-ylethyl)phenyl]pyrimidin-2-amine]
25 to 100 nM	COc1cc(-c2nc3sccn3c2-c2ccnc(Nc3cccc(CCN(C)C)c3)n2)ccc1OCc1ccccc1 [Example 85, 4-{6-[4-(benzyloxy)-3-methoxyphenyl]imidazo[2,1-b][1,3]thiazol-5-yl}-N-{3-[2-(dimethylamino)ethyl]phenyl}pyrimidin-2-amine]
25 to 100 nM	COc1cc(N2CCS(=O)(=O)CC2)ccc1Nc1nccc(-c2c(-c3ccc(OCc4ccccc4)c(OC)c3)nc3ccccn23)n1 [Example 63, 4-{2-[4-(benzyloxy)-3-methoxyphenyl]imidazo[1,2-a]pyridin-3-yl}-N-[4-(1,1-dioxidothiomorpholin-4-yl)-2-methoxyphenyl]pyrimidin-2-amine]
101 to 500 nM	COc1cc(-c2nc3ccccn3c2-c2ccnc(Nc3cnn(CCN4CCCCC4)c3)n2)ccc1OCc1ccccc1 [Example 54, 4-{2-[4-(benzyloxy)-3-methoxyphenyl]imidazo[1,2-a]pyridin-3-yl}-N-[1-(2-piperidin-1-ylethyl)-1H-pyrazol-4-yl]pyrimidin-2-amine]
25 to 100 nM	COc1cc(-c2nc3ccccn3c2-c2ccnc(Nc3ccc4c(c3)CNCC4)n2)ccc1OCc1ccccc1 [Example 62, N-(4-{2-[4-(benzyloxy)-3-methoxyphenyl]imidazo[1,2-a]pyridin-3-yl}pyrimidin-2-yl)-1,2,3,4-tetrahydroisoquinolin-7-amine]
< 25 nM	COc1ccc(NC(=O)CN(C)C)cc1Nc1nccc(-c2c(-c3ccc(OCc4ccccc4)cc3)nc3ccccn23)n1 [Example 72, N^1-{3-[(4-{2-[4-(benzyloxy)phenyl]imidazo[1,2-a]pyridin-3-yl}pyrimidin-2-yl)amino]-4-methoxyphenyl}-N^2,N^2-dimethylglycinamide]
25 to 100 nM	COc1cc(-c2nc3ccccn3c2-c2ccnc(Nc3ccc(NC(=O)CN(C)C)cc3)n2)ccc1OCc1ccccc1 [Example 65, N^1-{4-[(4-{2-[4-(benzyloxy)-3-methoxyphenyl]imidazo[1,2-a]pyridin-3-yl}pyrimidin-2-yl)amino]phenyl}-N^2,N^2-dimethylglycinamide]
< 25 nM	COc1cc(-c2nc3ccccn3c2-c2ccnc(Nc3ccc4c(c3)CCNC4)n2)ccc1OCc1ccccc1 [Example 61, N-(4-{2-[4-(benzyloxy)-3-methoxyphenyl]imidazo[1,2-a]pyridin-3-yl}pyrimidin-2-yl)-1,2,3,4-tetrahydroisoquinolin-6-amine]
< 25 nM	COc1ccc(N2CCS(=O)(=O)CC2)cc1Nc1nccc(-c2c(-c3ccc(OCc4ccccc4)c(OC)c3)nc3ccccn23)n1 [Example 74, 4-{2-[4-(benzyloxy)-3-methoxyphenyl]imidazo[1,2-a]pyridin-3-yl}-N-[5-(1,1-dioxidothiomorpholin-4-yl)-2-methoxyphenyl]pyrimidin-2-amine]
